Laboratory results reported in PubChem BioAssay (NCI).
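Results reflect a 48-hour exposure of cells in 96-well plates to compound at five concentrations. TGI marks complete inhibition of growth.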

What was measured:
Test in all cases: NCI anticancer screen, dose series, 48 h
RPMI-8226 leukemia = test system: RPMI-8226 leukemia
SK-MEL-28 melanoma = test system: SK-MEL-28 melanoma
HOP-92 NSCLC = test system: HOP-92 NSCLC
M14 melanoma = test system: M14 melanoma
HL-60(TB) leukemia = test system: HL-60(TB) leukemia
SR leukemia = test system: SR leukemia
CAKI-1 renal = test system: CAKI-1 renal
OVCAR-4 ovarian = test system: OVCAR-4 ovarian
COLO 205 colon = test system: COLO 205 colon
KM12 colon = test system: KM12 colon
RXF 393 renal = test system: RXF 393 renal
OVCAR-3 ovarian = test system: OVCAR-3 ovarian
SN12C renal = test system: SN12C renal
KM20L2 colon = test system: KM20L2 colon
U251 CNS = test system: U251 CNS
EKVX NSCLC = test system: EKVX NSCLC
CCRF-CEM leukemia = test system: CCRF-CEM leukemia
ACHN renal = test system: ACHN renal
SNB-78 CNS = test system: SNB-78 CNS
DMS 114 small cell lung = test system: DMS 114 small cell lung
NCI-H226 lung = test system: NCI-H226 lung
MALME-3M melanoma = test system: MALME-3M melanoma
OVCAR-5 ovarian = test system: OVCAR-5 ovarian
HCC-2998 colon = test system: HCC-2998 colon
OVCAR-8 ovarian = test system: OVCAR-8 ovarian
UO-31 renal = test system: UO-31 renal
NCI-H460 lung = test system: NCI-H460 lung
TK-10 renal = test system: TK-10 renal
K-562 leukemia = test system: K-562 leukemia
SF-295 CNS = test system: SF-295 CNS
SK-MEL-5 melanoma = test system: SK-MEL-5 melanoma
HOP-18 NSCLC = test system: HOP-18 NSCLC
DMS 273 small cell lung = test system: DMS 273 small cell lung
UACC-257 melanoma = test system: UACC-257 melanoma
NCI-H23 lung = test system: NCI-H23 lung
SNB-75 CNS = test system: SNB-75 CNS
SF-539 CNS = test system: SF-539 CNS
HCT-116 colon = test system: HCT-116 colon
A549 NSCLC = test system: A549 NSCLC
HOP-62 NSCLC = test system: HOP-62 NSCLC
HCT-15 colon = test system: HCT-15 colon
DLD-1 colon = test system: DLD-1 colon
HT29 colon = test system: HT29 colon
A498 renal = test system: A498 renal
786-0 renal = test system: 786-0 renal
IGROV1 ovarian = test system: IGROV1 ovarian
XF 498 CNS = test system: XF 498 CNS
MOLT-4 leukemia = test system: MOLT-4 leukemia
SK-OV-3 ovarian = test system: SK-OV-3 ovarian
M19-MEL melanoma = test system: M19-MEL melanoma
LOX IMVI melanoma = test system: LOX IMVI melanoma
SF-268 CNS = test system: SF-268 CNS
LXFL 529 NSCLC = test system: LXFL 529 NSCLC
SNB-19 CNS = test system: SNB-19 CNS
SK-MEL-2 melanoma = test system: SK-MEL-2 melanoma
SW-620 colon = test system: SW-620 colon
NCI-H522 lung = test system: NCI-H522 lung
UACC-62 melanoma = test system: UACC-62 melanoma
MDA-N = test system: MDA-N
MDA-MB-231 breast = test system: MDA-MB-231 breast
MDA-MB-435 = test system: MDA-MB-435
T-47D breast = test system: T-47D breast
HS 578T breast = test system: HS 578T breast
DU-145 prostate = test system: DU-145 prostate
PC-3 prostate = test system: PC-3 prostate
NCI/ADR-RES ovarian = test system: NCI/ADR-RES ovarian
MCF7 breast = test system: MCF7 breast
BT-549 breast = test system: BT-549 breast

Cn1cnc([N+](=O)[O-])c1Sc1nc2ccccc2[nH]1
TGI (RPMI-8226 leukemia): 56.4 µM
TGI (SK-MEL-28 melanoma): 26.1 µM
TGI (HOP-92 NSCLC): 40.8 µM
TGI (M14 melanoma): 56.3 µM
TGI (HL-60(TB) leukemia): > 100 µM
TGI (SR leukemia): 45.1 µM
TGI (CAKI-1 renal): 17.2 µM
TGI (OVCAR-4 ovarian): > 100 µM
TGI (COLO 205 colon): 23.1 µM
TGI (KM12 colon): 48.4 µM
TGI (RXF 393 renal): 25.3 µM
TGI (OVCAR-3 ovarian): > 100 µM
TGI (SN12C renal): 30.2 µM
TGI (KM20L2 colon): 61.5 µM
TGI (U251 CNS): 74.5 µM
TGI (EKVX NSCLC): 36.9 µM
TGI (CCRF-CEM leukemia): 90.1 µM
TGI (ACHN renal): 59.9 µM
TGI (SNB-78 CNS): 88 µM
TGI (DMS 114 small cell lung): 21.7 µM
TGI (NCI-H226 lung): 78.1 µM
TGI (MALME-3M melanoma): 35 µM
TGI (OVCAR-5 ovarian): > 100 µM
TGI (HCC-2998 colon): 26.9 µM
TGI (OVCAR-8 ovarian): 30.4 µM
TGI (UO-31 renal): 51.9 µM
TGI (NCI-H460 lung): 64.9 µM
TGI (TK-10 renal): 40.8 µM
TGI (K-562 leukemia): > 100 µM
TGI (SF-295 CNS): > 100 µM
TGI (SK-MEL-5 melanoma): 26.2 µM
TGI (HOP-18 NSCLC): > 100 µM
TGI (DMS 273 small cell lung): 3.43 µM
TGI (UACC-257 melanoma): 34.4 µM
TGI (NCI-H23 lung): 48.4 µM
TGI (SNB-75 CNS): 49.9 µM
TGI (SF-539 CNS): 27.8 µM
TGI (HCT-116 colon): 30.1 µM
TGI (A549 NSCLC): 54 µM
TGI (HOP-62 NSCLC): > 100 µM
TGI (HCT-15 colon): 33.1 µM
TGI (DLD-1 colon): 22.2 µM
TGI (HT29 colon): > 100 µM
TGI (A498 renal): 55.9 µM
TGI (786-0 renal): > 100 µM
TGI (IGROV1 ovarian): 54.4 µM
TGI (XF 498 CNS): 18.5 µM
TGI (MOLT-4 leukemia): 29.9 µM
TGI (SK-OV-3 ovarian): 61.8 µM
TGI (M19-MEL melanoma): 29.7 µM
TGI (LOX IMVI melanoma): 51 µM
TGI (SF-268 CNS): 38.5 µM
TGI (LXFL 529 NSCLC): 20.1 µM

CCN1c2ccccc2C(C(SC)S(=O)(=O)c2ccc(C)cc2)c2c1[nH]c(=O)n(C)c2=O (configuration not stated)
TGI (RPMI-8226 leukemia): > 100 µM
TGI (SK-MEL-28 melanoma): > 100 µM
TGI (HOP-92 NSCLC): > 100 µM
TGI (HL-60(TB) leukemia): > 100 µM
TGI (CAKI-1 renal): > 100 µM
TGI (OVCAR-4 ovarian): > 100 µM
TGI (COLO 205 colon): > 100 µM
TGI (KM12 colon): > 100 µM
TGI (OVCAR-3 ovarian): > 100 µM
TGI (SN12C renal): > 100 µM
TGI (U251 CNS): > 100 µM
TGI (EKVX NSCLC): > 100 µM
TGI (SNB-19 CNS): > 100 µM
TGI (CCRF-CEM leukemia): > 100 µM
TGI (SNB-78 CNS): > 100 µM
TGI (DMS 114 small cell lung): > 100 µM
TGI (NCI-H226 lung): > 100 µM
TGI (SK-MEL-2 melanoma): > 100 µM
TGI (MALME-3M melanoma): > 100 µM
TGI (SW-620 colon): > 100 µM
TGI (OVCAR-5 ovarian): > 100 µM
TGI (HCC-2998 colon): > 100 µM
TGI (OVCAR-8 ovarian): > 100 µM
TGI (UO-31 renal): > 100 µM
TGI (TK-10 renal): > 100 µM
TGI (K-562 leukemia): > 100 µM
TGI (SF-295 CNS): > 100 µM
TGI (NCI-H522 lung): > 100 µM
TGI (SK-MEL-5 melanoma): > 100 µM
TGI (HOP-18 NSCLC): > 100 µM
TGI (DMS 273 small cell lung): > 100 µM
TGI (UACC-257 melanoma): > 100 µM
TGI (NCI-H23 lung): > 100 µM
TGI (SNB-75 CNS): 69.7 µM
TGI (SF-539 CNS): > 100 µM
TGI (HCT-116 colon): > 100 µM
TGI (A549 NSCLC): > 100 µM
TGI (HOP-62 NSCLC): > 100 µM
TGI (HCT-15 colon): > 100 µM
TGI (DLD-1 colon): > 100 µM
TGI (HT29 colon): > 100 µM
TGI (A498 renal): > 100 µM
TGI (UACC-62 melanoma): > 100 µM
TGI (786-0 renal): > 100 µM
TGI (IGROV1 ovarian): > 100 µM
TGI (XF 498 CNS): > 100 µM
TGI (MOLT-4 leukemia): > 100 µM
TGI (SK-OV-3 ovarian): > 100 µM
TGI (M19-MEL melanoma): > 100 µM
TGI (LOX IMVI melanoma): > 100 µM
TGI (SF-268 CNS): > 100 µM
TGI (LXFL 529 NSCLC): > 100 µM

CC(=O)OC1=CC(n2cc(F)c(=O)[nH]c2=O)OC(C)C1=O (configuration not stated)
TGI (RPMI-8226 leukemia): > 100 µM
TGI (SK-MEL-28 melanoma): > 100 µM
TGI (HOP-92 NSCLC): > 100 µM
TGI (M14 melanoma): > 100 µM
TGI (HL-60(TB) leukemia): > 100 µM
TGI (SR leukemia): > 100 µM
TGI (MDA-N): > 100 µM
TGI (CAKI-1 renal): > 100 µM
TGI (OVCAR-4 ovarian): > 100 µM
TGI (COLO 205 colon): > 100 µM
TGI (KM12 colon): > 100 µM
TGI (RXF 393 renal): > 100 µM
TGI (OVCAR-3 ovarian): > 100 µM
TGI (SN12C renal): > 100 µM
TGI (U251 CNS): > 100 µM
TGI (EKVX NSCLC): > 100 µM
TGI (SNB-19 CNS): > 100 µM
TGI (MDA-MB-231 breast): > 100 µM
TGI (MDA-MB-435): > 100 µM
TGI (CCRF-CEM leukemia): > 100 µM
TGI (ACHN renal): > 100 µM
TGI (SNB-78 CNS): > 100 µM
TGI (DMS 114 small cell lung): > 100 µM
TGI (NCI-H226 lung): > 100 µM
TGI (SK-MEL-2 melanoma): > 100 µM
TGI (MALME-3M melanoma): > 100 µM
TGI (SW-620 colon): > 100 µM
TGI (OVCAR-5 ovarian): > 100 µM
TGI (HCC-2998 colon): > 97.2 µM
TGI (OVCAR-8 ovarian): > 100 µM
TGI (T-47D breast): > 100 µM
TGI (UO-31 renal): > 100 µM
TGI (NCI-H460 lung): > 100 µM
TGI (TK-10 renal): > 100 µM
TGI (K-562 leukemia): > 100 µM
TGI (SF-295 CNS): > 100 µM
TGI (NCI-H522 lung): > 100 µM
TGI (SK-MEL-5 melanoma): > 100 µM
TGI (HOP-18 NSCLC): > 100 µM
TGI (DMS 273 small cell lung): > 100 µM
TGI (UACC-257 melanoma): > 100 µM
TGI (NCI-H23 lung): > 100 µM
TGI (HS 578T breast): > 100 µM
TGI (SNB-75 CNS): 99.5 µM
TGI (SF-539 CNS): 29 µM
TGI (HCT-116 colon): > 100 µM
TGI (A549 NSCLC): > 63.1 µM
TGI (HOP-62 NSCLC): > 100 µM
TGI (HCT-15 colon): > 100 µM
TGI (DLD-1 colon): > 100 µM
TGI (DU-145 prostate): > 100 µM
TGI (HT29 colon): > 100 µM
TGI (A498 renal): > 44.9 µM
TGI (PC-3 prostate): > 100 µM
TGI (NCI/ADR-RES ovarian): > 100 µM
TGI (UACC-62 melanoma): > 100 µM
TGI (MCF7 breast): > 76.2 µM
TGI (786-0 renal): > 100 µM
TGI (IGROV1 ovarian): > 100 µM
TGI (XF 498 CNS): > 100 µM
TGI (MOLT-4 leukemia): > 100 µM
TGI (BT-549 breast): > 100 µM
TGI (SK-OV-3 ovarian): > 100 µM
TGI (M19-MEL melanoma): > 100 µM
TGI (LOX IMVI melanoma): > 100 µM
TGI (SF-268 CNS): > 100 µM
TGI (LXFL 529 NSCLC): > 100 µM
